Experimental data reported in patent US6599924B1, “2-hetaryl-3,4-dihydro-2H-pyrrole derivatives” (Bayer Aktiengesellschaft, priority 1998, dated 2003).

Assay: log P determination
Conditions: not given

In order of falling logP:
1. FC(F)(F)Oc1ccc(Oc2ccc(C3CCC(c4sccc4Cl)=N3)cc2)cc1 (stereo not shown) [Example I-710]  4.5
2. C=CCOc1ccc(C2CCC(c3sccc3Cl)=N2)cc1 (stereo not shown) [Example I-707]  2.29
3. C#CCOc1ccc(C2CCC(c3sccc3Cl)=N2)cc1 (stereo not shown) [Example I-720]  1.97

Same assay, conditions: pH 2.3

In order of rising logP:
1. FC(F)(F)Oc1ccc(-c2ccc(C3CCC(c4ccsc4)=N3)cc2)cc1 (stereo not shown) [Example I-430]  2.44
2. FC(F)(F)Oc1ccc(-c2ccc(C3CCC(c4cccs4)=N3)cc2)cc1 (stereo not shown) [Example I-7]  2.45
3. Fc1ccsc1C1=NC(c2ccc(-c3ccc(OC(F)(F)F)cc3)cc2)CC1 (stereo not shown) [Example I-868, 5-(3-fluorothien-2-yl)-3,4-dihydro-2-[4′-trifluoromethoxy]-[1,1′-biphenyl]-4-yl-2H-pyrrole]  3.18
4. FC(F)(F)Oc1ccc(-c2ccc(C3CCC(c4ccc(Cl)s4)=N3)cc2)cc1 (stereo not shown) [Example I-148]  4.21
5. FC(F)(F)Oc1ccc(Oc2ccc(C3CCC(c4sccc4Cl)=N3)cc2)cc1 (stereo not shown) [Example I-708, 2-(5-(4-Trifluoromethoxyphenoxy-phenyl)-Δ^2-pyrrolin-2-yl)-3-chlorothiophene]  4.5
6. FC(F)(F)Oc1ccc(-c2ccc(C3CCC(c4sccc4Cl)=N3)cc2)cc1 (stereo not shown) [Example I-195]  4.67
7. FC(F)(F)Oc1ccc(-c2ccc(C3CCC(c4ccc(Br)s4)=N3)cc2)cc1 (stereo not shown) [Example I-618]  4.73
8. CC(C)(C)OC(=O)NC(CCC(=O)c1sccc1F)c1ccc(-c2ccc(OC(F)(F)F)cc2)cc1 (stereo not shown) [II-868]  5.05
9. FC(F)(F)Oc1ccc(-c2ccc(C3CCC(c4ncccc4C(F)(F)F)=N3)cc2)cc1 (stereo not shown) [Example I-336]  5.06

Assay: physchem
Conditions: pH 7.5

With `c1ccc(C2CCC(c3cccnc3)=N2)cc1` (stereo not shown) [Example I-678] the logP was 2.01.

Assay: not given
Conditions: not given

In order of falling melting point:
1. Oc1ccc(C2CCC(c3sccc3Cl)=N2)cc1 (stereo not shown) [Example I-706, 2-(5-(4-Hydroxyphenyl)-Δ^2-pyrrolin-2-yl)-3-chlorothiophene]  146 °C
2. CC(C)(C)c1ccc(COc2ccc(C3CCC(c4sccc4Cl)=N3)cc2)cc1 (stereo not shown) [Example I-718, 3-Chloro-2-[5-(4-(4-tert-butylbenzyloxy)-phenyl)-Δ^2-pyrrolin-2-yl]-thiophene]  102 °C

Assay: not given
Conditions: not given
Remark: another data set of the same source

For “1-dimethylamino-5-phenylpyrrolidone-2 [G (I′-678)]”, the “logp (pH=7.5)” value was 1.52.
